Test results from patent EP0409227A2, “Pyrimidine nucleosides, their preparation and pharmaceutical preparations” (MATTHES, Eckart, Dr., priority 1989, dated 1991).

Legend:
HBV-Polymerase = biological target: T1, HBV-Polymerase (Hepatitis B virus genotype D subtype ayw, UniProt P03156); assay: Inhibition of HBV polymerase activity by nucleoside triphosphate analogues (method of Kaplan et al.); format: biochemical; details: 50 % inhibition of HBV polymerase activity; 3 h incubation at 37 °C; read-out: ID₅₀
T1 construct: Es wurde zunächst die Hemmbarkeit der HBV-assoziierten Polymerase; host or cells: virus-associated endogenous polymerase
Text: Das Hepatitis B Virus (HBV) besitzt eine zirkuläre, partiell doppelsträngige DNA, welche nach Infektion einer Leberzelle durch eine viruseigene Polymerase repliziert wird. Dieser Vorgang setzt jedoch die Synthese einer RNA durch eine zelluläre RNA-Polymerase voraus. Nur diese RNA-Matrize - im Zusammenhang mit der Replikation auch als Prägenom bezeichnet - kann von der HBV-Polymerase für die Synthese zunächst eines RNA-DNA Hybrids und dann der doppelsträngigen DNA benutzt werden. Damit verfügt die HBV-Polymerase über eine enzymatische Aktivität, die der einer reversen Transcriptase ähnelt (Will et al., J.Virology 61, 904 (1987)). Es wurde zunächst die Hemmbarkeit der HBV-assoziierten Polymerase durch die 5′-Triphosphate der erfindungsgemäßen Verbindungen untersucht. Dazu wurde die von Kaplan et al. (J.Virology 12, 995 (1973)) angegebene Methode zur Bestimmung der HBV-Polymerase benutzt, wobei die zu testenden Triphosphate den Ansätzen in verschiedenen Konzentrationen zugesetzt wurden. Die Hemmung der Enzymreaktion wurde nach 3-stündiger Inkubation bei 37 °C durch Vergleich mit einem Kontrollwert ermittelt und daraus die Konzentration der zugesetzten Analoga bestimmt, die zu einer 50 %igen Hemmung der HBV-Polymerase-Aktivität führt (ID₅₀). Tabelle 1 zeigt die Ergebnisse, wobei insbesondere 2′,3′-Didesoxy-3′-fluor-5-methylcytidin durch einen Wert ID₅₀ von 0,03 µM herausragt und damit zu den stärksten bisher bekannten Hemmstoffen der HBV-Polymerase zu rechnen ist. Tabelle 1

MT4 Zellen = assay: Cytotoxicity: inhibition of proliferation of MT4 cells; format: cell-based
Experimental: (§1) Unter dem Aspekt einer möglichen Anwendung der Verbindungen am Menschen wurden ihre antiproliferativen Wirkungen an menschlichen Zellkulturen wie früher beschrieben getestet (E. Matthes et al. Biochem.Biophys.Res.Commun. 153, 825 (1988)). Dabei zeigte sich, daß z.B. 2′,3′-Didesoxy-3-fluor-5-methylcytidin gegenüber der T-Zellinie MT4 eine CD₅₀ von 190 µM aufweist. In einem weiteren Test, in dem eine mögliche Wachstumshemmung koloniebildender Zellen des Knochenmarks der Maus (CFU-GM) untersucht wurde (E. Matthes et al. Biochem.Biophys.Res.Commun. 165, 488 (1989), erwies sich diese Verbindung ebenfalls als kaum proliferationshemmend (CD₅₀ > 500 µM). Die Wirkung weiterer Verbindungen auf die Proliferation von MT4-Zellen ist in Tabelle 3 zusammengefaßt. Tabelle 3

[1] = system: koloniebildender Zellen des Knochenmarks der Maus (CFU-GM); assay: Growth inhibition of colony-forming bone marrow cells (CFU-GM); format: cell-based; details: mouse bone marrow
Experimental: as §1

[2] = system: HBsAg-Sekretion von Hep G2 (2.2.15)-Zellen; assay: Inhibition of HBsAg secretion of Hep G2 (2.2.15) cells (solid-phase radioimmunoassay of the medium); format: cell-based, HBV
Experimental: (§2) Die Testung der antiviralen Wirksamkeit der Nucleoside auf zelluärer Ebene erfolgte an einer menschlichen Hepatoblastom-Zellinie, die mit dem HBV-Genom tranfiziert wurde und sowohl das Oberflächenantigen des Virus (HBsAg) als auch die HBV-DNA permanent produziert und infektiöse Viruspartikel in das Medium abgibt (Hep G2-Zellen, Klon 2.2.15, Sells et al. Proc.Natl.Acad. Sci. 84, 1005 (1987)). Die Zellen (5x10⁵/ml) wurden in RPMI 1640-Medium mit 2 mM Glutamin und 10% fetalem Kälberserum allein oder zusammen mit den Nucleosid-Analoga für 4 Tage inkubiert, danach wurden den Ansätzen für 24 Stunden ³H-Thymidin bzw. ³H-Desoxyadenosin (3 µCi/ml) zugesetzt, die Zellen abzentrifugiert und darin die säureunlösliche Radioaktivität und damit der Einfluß auf die DNA-Synthese bestimmt. Im Inkubationsmedium wurde das HBsAg durch Festphasenradioimmunoassay (Travenol-Genentech Diagnostics, Cambridge, MA) entsprechend den Instruktionen des Herstellers ermittelt. Die Tabelle 4 faßt die Ergebnisse zusammen, die belegen, daß die getesteten Verbindungen hochwirksame und selektive Hemmstoffe der HBV-Vermehrung sind.

Hep G2 (2.2.15)-Zellen = assay: DNA synthesis of Hep G2 (2.2.15) cells (acid-insoluble radioactivity after 3H-thymidine or 3H-deoxyadenosine); format: cell-based, menschlichen; details: 4 days, then 24 h label, mean ± SD of five experiments
Experimental: as §2

[3] = MT4 cells, 50 % inhibition of cell multiplication after 48 h
[4] = nucleoside 0,01 µM, 4 days + 24 h, mean ± SD of five experiments
[5] = nucleoside 0,1 µM, 4 days + 24 h, mean ± SD of five experiments
[6] = nucleoside 0,01 µM, % of control without nucleoside (100)
[7] = nucleoside 0,1 µM, % of control without nucleoside (100)
[8] = nucleoside 0,03 µM, 4 days + 24 h, mean ± SD of five experiments
[9] = nucleoside 0,3 µM, 4 days + 24 h, mean ± SD of five experiments
[10] = nucleoside 0,03 µM, % of control without nucleoside (100)
[11] = nucleoside 0,3 µM, % of control without nucleoside (100)
[12] = nucleoside 0,003 µM, 4 days + 24 h, mean ± SD of five experiments
[13] = nucleoside 0,003 µM, % of control without nucleoside (100)
[14] = nucleoside 1,0 µM, 4 days + 24 h, mean ± SD of five experiments
[15] = nucleoside 1,0 µM, % of control without nucleoside (100)
[16] = nucleoside 3,0 µM, 4 days + 24 h, mean ± SD of five experiments
[17] = nucleoside 3,0 µM, % of control without nucleoside (100)

T1 sequence (P03156 whole entry): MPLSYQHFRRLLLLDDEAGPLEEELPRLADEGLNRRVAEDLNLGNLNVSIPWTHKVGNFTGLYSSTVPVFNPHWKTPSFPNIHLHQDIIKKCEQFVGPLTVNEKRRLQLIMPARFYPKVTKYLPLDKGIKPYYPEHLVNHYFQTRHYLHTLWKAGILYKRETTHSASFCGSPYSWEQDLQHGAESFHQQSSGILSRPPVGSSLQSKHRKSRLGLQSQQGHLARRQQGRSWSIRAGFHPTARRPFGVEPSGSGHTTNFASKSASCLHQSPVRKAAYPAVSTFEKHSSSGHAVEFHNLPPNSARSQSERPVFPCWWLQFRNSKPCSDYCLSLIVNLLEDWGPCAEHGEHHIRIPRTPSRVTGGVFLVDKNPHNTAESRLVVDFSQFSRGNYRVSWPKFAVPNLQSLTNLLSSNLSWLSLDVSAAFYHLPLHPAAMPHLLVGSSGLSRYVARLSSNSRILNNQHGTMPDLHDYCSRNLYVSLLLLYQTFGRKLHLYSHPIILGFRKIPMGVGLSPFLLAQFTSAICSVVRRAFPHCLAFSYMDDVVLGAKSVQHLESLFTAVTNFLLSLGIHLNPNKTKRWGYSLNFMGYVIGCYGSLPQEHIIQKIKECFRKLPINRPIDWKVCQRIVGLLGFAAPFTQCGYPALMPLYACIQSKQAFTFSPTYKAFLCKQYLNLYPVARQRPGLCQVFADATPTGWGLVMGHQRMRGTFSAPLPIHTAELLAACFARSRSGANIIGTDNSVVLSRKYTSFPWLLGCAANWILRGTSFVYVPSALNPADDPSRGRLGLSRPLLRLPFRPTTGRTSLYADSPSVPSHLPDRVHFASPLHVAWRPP

Row | SMILES | HBsAg [2, 4] | HBsAg [2, 5] | HBsAg [2, 6] [%] | HBsAg [2, 7] [%] | HBsAg [2, 8] | HBsAg [2, 9] | HBsAg [2, 10] [%] | HBsAg [2, 11] [%] | HBsAg [2, 12] | HBsAg [2, 13] [%] | HBsAg [2, 14] | HBsAg [2, 15] [%] | HBsAg [2, 16] | HBsAg [2, 17] [%] | ^3H-DNA (Hep G2 (2.2.15)-Zellen; nucleoside 0,01 µM) [dpm/Kultur] | ^3H-DNA (Hep G2 (2.2.15)-Zellen; nucleoside 0,1 µM) [dpm/Kultur] | ^3H-DNA (Hep G2 (2.2.15)-Zellen; nucleoside 0,03 µM) [dpm/Kultur] | ^3H-DNA (Hep G2 (2.2.15)-Zellen; nucleoside 0,3 µM) [dpm/Kultur] | ^3H-DNA (Hep G2 (2.2.15)-Zellen; nucleoside 0,003 µM) [dpm/Kultur] | ^3H-DNA (Hep G2 (2.2.15)-Zellen; nucleoside 1,0 µM) [dpm/Kultur] | other results
1 | Cc1cn([C@H]2C[C@H](F)[C@@H](CO)O2)c(=O)nc1N [2′,3′-Didesoxy-3′-fluor-5-methylcytidin] | 7,0 ± 0,9 ng/ml | 0,4 ± 0,1 ng/ml | 36 | 2 | 2,4 ± 0,3 ng/ml | < 0,1 ng/ml | 12 | < 1 | 14,3 ± 2,4 ng/ml | 74 | < 0,1 ng/ml | < 1 | < 0,1 ng/ml | < 1 | 15060 ± 1895 | 14350 ± 1520 | 15580 ± 1910 | 13175 ± 1975 | 13270 ± 1650 | 8295 ± 1010 | IC50 (HBV-Polymerase): 30 nM; CD₅₀ (MT4 Zellen; [3]): 190 µM; CD₅₀ [1]: > 500 µM; ^3H-DNA (Hep G2 (2.2.15)-Zellen; nucleoside 3,0 µM): 2470 ± 295 dpm/Kultur
2 | Cc1cn([C@H]2C[C@H](Cl)[C@@H](CO)O2)c(=O)nc1N [2′,3′-Didesoxy-3′chlor-5-methylcytidin, 3′-Chlor-2′,3′-didesoxy-5-methylcytidin] | 9,6 ± 1,2 ng/ml | 3,4 ± 0,4 ng/ml | 50 | 18 | 7,1 ± 0,8 ng/ml | 3,2 ± 0,5 ng/ml | 37 | 17 | 18,5 ± 2,6 ng/ml | 96 | 0,4 ± 0,1 ng/ml | 2 | < 0,1 ng/ml | < 1 | 14820 ± 1550 | 15185 ± 1735 | 14370 ± 1620 | 13895 ± 1540 | 13450 ± 1465 | 12270 ± 1590 | CD₅₀ (MT4 Zellen; [3]): 625 µM; ^3H-DNA (Hep G2 (2.2.15)-Zellen; nucleoside 3,0 µM): 10065 ± 1855 dpm/Kultur
3 | Nc1ncnc2c1ncn2[C@H]1C=C[C@@H](CO)O1 [2′,3′-Didehydro-2′,3′-didesoxyadenosin, 9-(2,3-Didesoxy-β-D-glycero-pent-2-enofuranosyl)adenin] | 12,4 ± 1,8 ng/ml | 0,5 ± 0,2 ng/ml | 71 | 3 | 4,7 ± 0,6 ng/ml | < 0,1 ng/ml | 27 | < 1 | 16,9 ± 2,6 ng/ml | 96 | < 0,1 ng/ml | < 1 | < 0,1 ng/ml | < 1 | 17215 ± 1760 | 16230 ± 1745 | 18975 ± 1957 | 19400 ± 1926 | 19650 ± 1935 | 9930 ± 1130 | CD₅₀ (MT4 Zellen; human, 48 h): 48 µM; ^3H-DNA (Hep G2 (2.2.15)-Zellen; nucleoside 3,0 µM): 4265 ± 555 dpm/Kultur
4 | Cc1cn([C@H]2C[C@H](N)[C@@H](CO)O2)c(=O)nc1N [2′,3′-Didesoxy-3′-amino-5-methylcytidin] | 8,5 ± 1,3 ng/ml | 4,8 ± 0,6 ng/ml | 44 | 25 | 7,0 ± 1,1 ng/ml | 3,2 ± 0,4 ng/ml | 36 | 17 | 13,9 ± 2,9 ng/ml | 72 | 0,3 ± 0,1 ng/ml | 2 | < 0,1 ng/ml | < 1 | 15445 ± 1830 | 14350 ± 1570 | 14180 ± 1650 | 12160 ± 1860 | 16020 ± 1790 | 8150 ± 1125 | CD₅₀ (MT4 Zellen; human, 48 h): 1,2 µM; ^3H-DNA (Hep G2 (2.2.15)-Zellen; nucleoside 3,0 µM): 2100 ± 430 dpm/Kultur
